What was measured:
Assay type in all cases: cell-based
[1] = target: proteins of U3A human fibrosarcoma cells (4462 proteins detected) (Homo sapiens, UniProt Q14974); conditions: protein KPNB1; soluble abundance after heat, U3A cells
[2] = target: proteins of U3A human fibrosarcoma cells (4462 proteins detected) (Homo sapiens, UniProt O95372); conditions: protein LYPLA2; soluble abundance after heat, U3A cells
[3] = target: proteins of U3A human fibrosarcoma cells (4462 proteins detected) (Homo sapiens, UniProt O00622); conditions: protein CYR61; U3A cells
[4] = target: proteins of U3A human fibrosarcoma cells (4462 proteins detected) (Homo sapiens, UniProt Q9HC44); conditions: protein GPBP1L1; soluble abundance after heat, U3A cells
[5] = target: proteins of U3A human fibrosarcoma cells (4462 proteins detected) (Homo sapiens, UniProt Q9Y3D3); conditions: protein MRPS16; U3A, 10 μM, 2 h
[6] = target: proteins of U3A human fibrosarcoma cells (4462 proteins detected) (Homo sapiens, UniProt Q8IYW5); conditions: protein RNF168; U3A cells
[7] = target: proteins of U3A human fibrosarcoma cells (4462 proteins detected) (Homo sapiens, UniProt Q9H9Q2); conditions: protein COPS7B; U3A cells
proteins of U3A human fibrosarcoma cells (4462 proteins detected) (Homo sapiens, UniProt Q9H9Q2), sequence (Q9H9Q2 whole entry): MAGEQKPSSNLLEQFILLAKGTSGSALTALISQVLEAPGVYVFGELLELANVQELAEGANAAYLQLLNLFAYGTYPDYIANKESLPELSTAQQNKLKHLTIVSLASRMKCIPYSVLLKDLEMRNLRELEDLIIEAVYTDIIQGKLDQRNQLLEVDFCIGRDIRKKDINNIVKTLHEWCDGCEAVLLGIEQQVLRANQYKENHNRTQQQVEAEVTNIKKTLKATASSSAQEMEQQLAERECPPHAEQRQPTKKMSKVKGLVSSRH

[8] = target: proteins of U3A human fibrosarcoma cells (4462 proteins detected) (Homo sapiens, UniProt Q9H4A3); conditions: protein WNK1, U3A cells
[9] = target: proteins of U3A human fibrosarcoma cells (4462 proteins detected) (Homo sapiens, UniProt O15400); conditions: protein STX7; U3A cells
[10] = target: proteins of U3A human fibrosarcoma cells (4462 proteins detected) (Homo sapiens, UniProt Q96GM5); conditions: protein SMARCD1; U3A cells
proteins of U3A human fibrosarcoma cells (4462 proteins detected) (Homo sapiens, UniProt Q96GM5), sequence (Q96GM5 whole entry): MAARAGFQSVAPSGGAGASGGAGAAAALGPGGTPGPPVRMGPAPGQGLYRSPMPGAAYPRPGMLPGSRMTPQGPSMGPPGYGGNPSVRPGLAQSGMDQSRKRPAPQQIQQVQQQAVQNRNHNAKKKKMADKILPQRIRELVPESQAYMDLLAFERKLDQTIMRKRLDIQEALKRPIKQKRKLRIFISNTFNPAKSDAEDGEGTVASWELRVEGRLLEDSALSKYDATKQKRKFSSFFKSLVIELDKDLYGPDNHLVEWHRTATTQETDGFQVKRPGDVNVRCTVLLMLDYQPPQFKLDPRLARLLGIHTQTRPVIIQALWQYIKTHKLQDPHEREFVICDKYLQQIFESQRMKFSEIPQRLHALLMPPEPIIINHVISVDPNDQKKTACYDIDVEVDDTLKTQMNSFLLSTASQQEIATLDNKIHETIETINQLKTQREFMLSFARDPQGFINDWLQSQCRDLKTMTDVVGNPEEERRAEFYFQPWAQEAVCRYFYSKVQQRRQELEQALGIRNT

[11] = target: proteins of U3A human fibrosarcoma cells (4462 proteins detected) (Homo sapiens, UniProt Q9UKV5); conditions: protein AMFR; U3A cells
[12] = target: proteins of U3A human fibrosarcoma cells (4462 proteins detected) (Homo sapiens, UniProt Q4KWH8); conditions: protein PLCH1; U3A, 10 μM, 2 h
[13] = target: proteins of U3A human fibrosarcoma cells (4462 proteins detected) (Homo sapiens, UniProt Q9HAT2); conditions: protein SIAE; U3A, 10 μM, 2 h
proteins of U3A human fibrosarcoma cells (4462 proteins detected) (Homo sapiens, UniProt Q9HAT2), sequence (Q9HAT2 24-523): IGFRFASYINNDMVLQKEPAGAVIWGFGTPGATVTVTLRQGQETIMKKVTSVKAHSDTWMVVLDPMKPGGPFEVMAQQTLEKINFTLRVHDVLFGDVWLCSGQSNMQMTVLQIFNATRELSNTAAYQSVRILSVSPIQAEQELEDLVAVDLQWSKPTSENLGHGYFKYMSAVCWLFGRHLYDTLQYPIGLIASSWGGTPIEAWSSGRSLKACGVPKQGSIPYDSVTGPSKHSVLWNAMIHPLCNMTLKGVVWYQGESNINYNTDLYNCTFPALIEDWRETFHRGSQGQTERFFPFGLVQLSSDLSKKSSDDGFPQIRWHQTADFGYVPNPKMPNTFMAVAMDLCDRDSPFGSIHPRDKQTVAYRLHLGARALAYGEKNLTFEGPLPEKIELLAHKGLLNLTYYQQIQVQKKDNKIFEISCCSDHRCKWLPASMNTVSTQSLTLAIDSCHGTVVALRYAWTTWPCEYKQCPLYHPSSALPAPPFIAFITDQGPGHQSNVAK

[14] = target: proteins of U3A human fibrosarcoma cells (4462 proteins detected) (Homo sapiens, UniProt Q9Y2Q3); conditions: protein GSTK1; U3A cells
proteins of U3A human fibrosarcoma cells (4462 proteins detected) (Homo sapiens, UniProt Q9Y2Q3), sequence (Q9Y2Q3 whole entry): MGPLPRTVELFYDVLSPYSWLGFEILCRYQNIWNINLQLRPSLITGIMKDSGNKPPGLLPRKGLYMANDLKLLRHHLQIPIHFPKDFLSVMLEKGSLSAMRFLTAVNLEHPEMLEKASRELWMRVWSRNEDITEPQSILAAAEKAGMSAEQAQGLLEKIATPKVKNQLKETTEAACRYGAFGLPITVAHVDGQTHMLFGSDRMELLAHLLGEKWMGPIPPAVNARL

[15] = target: proteins of U3A human fibrosarcoma cells (4462 proteins detected) (Homo sapiens, UniProt Q9GZQ3); conditions: protein COMMD5; U3A cells
[16] = target: proteins of U3A human fibrosarcoma cells (4462 proteins detected) (Homo sapiens, UniProt P04083); conditions: protein ANXA1, U3A cells
proteins of U3A human fibrosarcoma cells (4462 proteins detected) (Homo sapiens, UniProt P04083), sequence (P04083 whole entry): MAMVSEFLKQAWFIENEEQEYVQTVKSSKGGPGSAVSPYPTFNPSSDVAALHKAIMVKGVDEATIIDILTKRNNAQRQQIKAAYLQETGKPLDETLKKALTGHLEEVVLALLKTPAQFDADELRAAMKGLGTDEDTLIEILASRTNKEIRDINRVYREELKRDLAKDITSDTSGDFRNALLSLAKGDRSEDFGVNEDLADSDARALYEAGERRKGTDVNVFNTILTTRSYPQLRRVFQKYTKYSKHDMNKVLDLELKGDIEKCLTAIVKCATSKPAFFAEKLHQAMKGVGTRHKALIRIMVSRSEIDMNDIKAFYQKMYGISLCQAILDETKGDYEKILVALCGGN

[17] = target: proteins of U3A human fibrosarcoma cells (4462 proteins detected) (Homo sapiens, UniProt Q8IXQ4); conditions: protein GPALPP1, U3A cells
proteins of U3A human fibrosarcoma cells (4462 proteins detected) (Homo sapiens, UniProt Q8IXQ4), sequence (Q8IXQ4 whole entry): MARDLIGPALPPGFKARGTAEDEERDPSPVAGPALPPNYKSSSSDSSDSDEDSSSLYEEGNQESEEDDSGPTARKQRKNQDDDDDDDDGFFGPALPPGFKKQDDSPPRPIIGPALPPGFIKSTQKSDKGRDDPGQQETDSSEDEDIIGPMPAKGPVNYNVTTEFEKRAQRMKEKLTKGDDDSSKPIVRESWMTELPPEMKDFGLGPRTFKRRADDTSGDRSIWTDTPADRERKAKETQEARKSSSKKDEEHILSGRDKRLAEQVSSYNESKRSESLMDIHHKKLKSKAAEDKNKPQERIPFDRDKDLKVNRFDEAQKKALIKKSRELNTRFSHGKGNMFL

[18] = target: proteins of U3A human fibrosarcoma cells (4462 proteins detected) (Homo sapiens, UniProt Q9NYZ3); conditions: protein GTSE1; U3A cells
proteins of U3A human fibrosarcoma cells (4462 proteins detected) (Homo sapiens, UniProt Q9NYZ3), sequence (Q9NYZ3 whole entry): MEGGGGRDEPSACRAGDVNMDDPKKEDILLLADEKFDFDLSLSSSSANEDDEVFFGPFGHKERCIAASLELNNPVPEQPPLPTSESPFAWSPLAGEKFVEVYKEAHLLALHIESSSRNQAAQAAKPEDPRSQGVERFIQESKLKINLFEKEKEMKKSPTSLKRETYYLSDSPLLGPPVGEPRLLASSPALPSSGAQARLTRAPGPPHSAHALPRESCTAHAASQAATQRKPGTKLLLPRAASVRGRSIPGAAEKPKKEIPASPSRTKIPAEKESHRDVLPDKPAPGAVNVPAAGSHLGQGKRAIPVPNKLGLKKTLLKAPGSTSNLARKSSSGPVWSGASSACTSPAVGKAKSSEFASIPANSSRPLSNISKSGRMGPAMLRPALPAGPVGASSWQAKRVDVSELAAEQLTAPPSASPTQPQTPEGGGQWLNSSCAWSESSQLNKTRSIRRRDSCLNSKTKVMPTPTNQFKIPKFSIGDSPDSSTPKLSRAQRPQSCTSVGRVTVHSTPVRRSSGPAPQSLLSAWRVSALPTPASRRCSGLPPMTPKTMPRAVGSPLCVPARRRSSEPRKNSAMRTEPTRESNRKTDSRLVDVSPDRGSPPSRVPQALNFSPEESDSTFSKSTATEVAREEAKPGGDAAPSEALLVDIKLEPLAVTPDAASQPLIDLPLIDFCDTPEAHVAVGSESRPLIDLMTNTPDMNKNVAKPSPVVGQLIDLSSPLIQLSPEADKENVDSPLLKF

[19] = target: proteins of U3A human fibrosarcoma cells (4462 proteins detected) (Homo sapiens, UniProt P04818); conditions: PISA
[20] = target: proteins of U3A human fibrosarcoma cells (4462 proteins detected) (Homo sapiens, UniProt O75635); conditions: protein SERPINB7; U3A, 10 μM, 2 h
proteins of U3A human fibrosarcoma cells (4462 proteins detected) (Homo sapiens, UniProt O75635), sequence (O75635 whole entry): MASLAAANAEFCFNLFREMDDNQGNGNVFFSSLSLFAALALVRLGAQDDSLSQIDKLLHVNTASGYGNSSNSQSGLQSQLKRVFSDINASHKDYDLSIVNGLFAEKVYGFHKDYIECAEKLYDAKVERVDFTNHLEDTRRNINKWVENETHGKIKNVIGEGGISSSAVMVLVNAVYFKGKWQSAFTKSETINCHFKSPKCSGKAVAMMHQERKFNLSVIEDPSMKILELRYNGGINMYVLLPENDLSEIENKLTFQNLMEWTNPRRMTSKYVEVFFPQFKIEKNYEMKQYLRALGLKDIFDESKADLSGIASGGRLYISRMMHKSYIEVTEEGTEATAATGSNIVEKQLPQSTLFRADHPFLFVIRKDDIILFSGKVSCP

[21] = target: proteins of U3A human fibrosarcoma cells (4462 proteins detected) (Homo sapiens, UniProt P49915); conditions: protein GMPS; soluble abundance after heat, U3A cells
[22] = target: proteins of U3A human fibrosarcoma cells (4462 proteins detected) (Homo sapiens, UniProt Q9ULX3); conditions: protein NOB1; U3A cells
proteins of U3A human fibrosarcoma cells (4462 proteins detected) (Homo sapiens, UniProt Q9ULX3), sequence (Q9ULX3 whole entry): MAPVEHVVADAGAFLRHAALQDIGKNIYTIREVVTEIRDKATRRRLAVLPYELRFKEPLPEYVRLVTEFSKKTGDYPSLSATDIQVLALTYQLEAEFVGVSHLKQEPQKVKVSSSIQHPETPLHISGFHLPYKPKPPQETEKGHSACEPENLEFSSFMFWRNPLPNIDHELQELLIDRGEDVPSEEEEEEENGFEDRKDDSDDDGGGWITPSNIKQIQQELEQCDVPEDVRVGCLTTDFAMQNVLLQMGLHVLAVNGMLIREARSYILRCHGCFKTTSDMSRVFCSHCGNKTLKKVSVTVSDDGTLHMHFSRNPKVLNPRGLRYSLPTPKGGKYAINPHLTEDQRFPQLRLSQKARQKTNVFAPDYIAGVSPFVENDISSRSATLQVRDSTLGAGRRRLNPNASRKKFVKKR

[23] = target: proteins of U3A human fibrosarcoma cells (4462 proteins detected) (Homo sapiens, UniProt P29992); conditions: protein GNA11; U3A cells
[24] = target: proteins of U3A human fibrosarcoma cells (4462 proteins detected) (Homo sapiens, UniProt P31689); conditions: protein DNAJA1; U3A cells
[25] = target: proteins of U3A human fibrosarcoma cells (4462 proteins detected) (Homo sapiens, UniProt P21283); conditions: protein ATP6V1C1; soluble abundance after heat, U3A cells
[26] = target: proteins of U3A human fibrosarcoma cells (4462 proteins detected) (Homo sapiens, UniProt O95297); conditions: protein MPZL1; U3A, 10 μM, 2 h
[27] = target: proteins of U3A human fibrosarcoma cells (4462 proteins detected) (Homo sapiens, UniProt Q6YHU6); conditions: protein THADA; soluble abundance after heat, U3A cells
[28] = target: proteins of U3A human fibrosarcoma cells (4462 proteins detected) (Homo sapiens, UniProt Q15051); conditions: protein IQCB1; U3A, 10 μM, 2 h
[29] = target: proteins of U3A human fibrosarcoma cells (4462 proteins detected) (Homo sapiens, UniProt P41214); conditions: protein EIF2D; U3A cells
proteins of U3A human fibrosarcoma cells (4462 proteins detected) (Homo sapiens, UniProt P41214), sequence (P41214 whole entry): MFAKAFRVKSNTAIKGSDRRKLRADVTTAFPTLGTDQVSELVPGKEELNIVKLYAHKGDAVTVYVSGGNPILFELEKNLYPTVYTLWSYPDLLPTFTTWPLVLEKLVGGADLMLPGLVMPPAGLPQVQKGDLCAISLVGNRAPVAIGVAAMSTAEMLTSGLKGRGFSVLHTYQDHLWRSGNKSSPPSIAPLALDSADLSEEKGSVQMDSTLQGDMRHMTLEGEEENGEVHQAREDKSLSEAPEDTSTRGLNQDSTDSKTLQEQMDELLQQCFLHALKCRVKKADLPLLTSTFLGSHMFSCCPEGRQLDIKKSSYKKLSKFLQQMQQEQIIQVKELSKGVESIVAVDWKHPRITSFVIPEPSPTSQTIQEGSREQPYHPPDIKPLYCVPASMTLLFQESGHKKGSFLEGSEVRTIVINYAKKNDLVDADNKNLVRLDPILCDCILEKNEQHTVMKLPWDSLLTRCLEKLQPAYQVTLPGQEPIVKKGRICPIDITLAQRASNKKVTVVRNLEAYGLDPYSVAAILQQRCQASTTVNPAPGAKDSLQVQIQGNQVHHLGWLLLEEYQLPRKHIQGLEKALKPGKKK

[30] = target: proteins of U3A human fibrosarcoma cells (4462 proteins detected) (Homo sapiens, UniProt P61289); conditions: protein PSME3; U3A cells
proteins of U3A human fibrosarcoma cells (4462 proteins detected) (Homo sapiens, UniProt P61289), sequence (P61289 whole entry): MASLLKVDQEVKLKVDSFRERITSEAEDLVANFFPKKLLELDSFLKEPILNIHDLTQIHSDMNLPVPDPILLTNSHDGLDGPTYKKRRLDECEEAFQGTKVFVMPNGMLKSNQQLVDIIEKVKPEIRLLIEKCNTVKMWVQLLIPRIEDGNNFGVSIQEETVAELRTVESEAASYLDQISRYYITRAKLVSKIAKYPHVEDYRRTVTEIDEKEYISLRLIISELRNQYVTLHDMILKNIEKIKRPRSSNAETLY

proteins of U3A human fibrosarcoma cells (4462 proteins detected) (Homo sapiens, UniProt O95372), sequence (O95372 whole entry): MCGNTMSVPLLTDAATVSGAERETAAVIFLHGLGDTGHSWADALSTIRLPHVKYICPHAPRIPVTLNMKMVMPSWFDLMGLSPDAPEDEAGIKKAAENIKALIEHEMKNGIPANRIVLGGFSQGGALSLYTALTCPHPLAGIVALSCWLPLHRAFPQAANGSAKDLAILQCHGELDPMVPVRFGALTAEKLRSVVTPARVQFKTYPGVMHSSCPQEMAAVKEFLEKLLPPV

Q: How did the “Log2 (PYR/DMSO)” value [1] turn out when `CCc1nc(N)nc(N)c1-c1ccc(Cl)cc1` [pyrimethamine] was run?
A: 0.14

Q: And the “Log2 (PYR/DMSO)” value [2]?
A: 0.15

Q: And the “Log2 (PYR/DMSO)” value [3]?
A: 0.21

Q: And the “Log2 (PYR/DMSO)” value [4]?
A: 0.14

Q: And the “Log2 (PYR/DMSO), MRPS16” value [5]?
A: 0.24

Q: What about the “Log2 (PYR/DMSO)” value [6] of the same compound?
A: 0.17

Q: What about the “Log2 (PYR/DMSO)” value [7] of the same compound?
A: 0.19

Q: What about the “Log2 (PYR/DMSO)” value [8] of the same compound?
A: -0.04

Q: What about the “Log2 (PYR/DMSO)” value [9] of the same compound?
A: 0.18

Q: And the “Log2 (PYR/DMSO)” value [10]?
A: 0.17

Q: What about the “Log2 (PYR/DMSO)” value [11] of the same compound?
A: 0.16

Q: And the “Log2 (PYR/DMSO), PLCH1” value [12]?
A: 0.32

Q: And the “Log2 (PYR/DMSO), SIAE” value [13]?
A: 0.34

Q: And the “Log2 (PYR/DMSO)” value [14]?
A: 0.18

Q: And the “Log2 (PYR/DMSO)” value [15]?
A: 0.21

Q: And the “Log2 (PYR/DMSO)” value [16]?
A: -0.05

Q: And the “Log2 (PYR/DMSO)” value [17]?
A: -0.04

Q: And the “Log2 (PYR/DMSO)” value [18]?
A: 0.20

Q: And the “engagement of TS (thymidylate synthase)” value [19]?
A: no engagement

Q: And the “Log2 (PYR/DMSO), SERPINB7” value [20]?
A: -0.19

Q: And the “Log2 (PYR/DMSO)” value [21]?
A: 0.14

Q: What about the “Log2 (PYR/DMSO)” value [22] of the same compound?
A: 0.15

Q: And the “Log2 (PYR/DMSO)” value [23]?
A: 0.16

Q: What about the “Log2 (PYR/DMSO)” value [24] of the same compound?
A: 0.17

Q: And the “Log2 (PYR/DMSO)” value [25]?
A: 0.13

Q: What about the “Log2 (PYR/DMSO), MPZL1” value [26] of the same compound?
A: 0.25

Q: And the “Log2 (PYR/DMSO)” value [27]?
A: 0.15

Q: What about the “Log2 (PYR/DMSO), IQCB1” value [28] of the same compound?
A: -0.16

Q: What about the “Log2 (PYR/DMSO)” value [29] of the same compound?
A: 0.22

Q: And the “Log2 (PYR/DMSO)” value [30]?
A: 0.17
